According to PMC12264554, “Application of preclinical absorption, distribution, metabolism, elimination in vitro techniques for the characterization and compound library optimization of novel antibiotic gallium salophen” (Drug Metabolism and Disposition, 2025):
Like-named read-outs stand apart in the source and are kept apart here.

Legend:
[1] = target: HasA (Pseudomonas aeruginosa, UniProt G3XD33); experiment: Kd determination by fluorescence quenching of apo-HasAp; conditions: read-out: HasA Kd; apo-HasAp 1 μM, 20 mM sodium phosphate pH 7.4, 25 °C, one-site binding fit
Description: Wild-type, full-length HasAp was prepared from freshly transformed Escherichia coli BL21(DE3) competent cells as previously described in 4 L of M9 media. Cell pellets were resuspended and lysed with an LM-20 microfluidizer at 18,000 psi. Lysate was clarified by centrifugation and applied to a Q-Sepharose column. HasAp was eluted over a gradient from 20 to 600 mM NaCl in 20 mM Tris-HCl (pH 7.5), and desired fractions determined by SDS-PAGE were pooled. Apo-HasAp was further purified on a Butyl Sepharose Fast Flow column equilibrated with 50 mM sodium phosphate buffer with 0.7 M ammonium sulfate (pH 7.0). Holo-HasAp and other proteins eluted within 2–3 bed volumes of 50 mM sodium phosphate containing 0.5 M ammonium sulfate. Apo-HasAp was then eluted with a linear gradient of sodium phosphate buffer (50–20 mM) containing ammonium sulfate (0.5–0 M). Fractions were analyzed again by SDS-PAGE, and the apo-HasAp was pooled, concentrated (Amicon stirred cell with Ultracel 10 kDa filter), and exchanged into 20 mM sodium phosphate buffer.
Binding affinities were determined using a BioTek Synergy H1 microplate reader in a black 96-well plate. Compounds were solvated in H2O in serial dilutions (100–0.39 μM). One micromolar solution of apo-HasAp 20 mM sodium phosphate buffer (pH 7.4, 25 °C) was titrated into the ligand of interest. Emission spectra were recorded (300–500 nm) after excitation at 280 nm. The decrease in maximum emission was plotted against the ligand concentration (accounting for dilution) and fit to one-site binding using GraphPad Prism v10.

[2] = Experimental LogP by reverse-phase HPLC method; format: physicochemical; conditions: extrapolated log kw
Source text: LogP was experimentally determined using previously published reverse-phase high-performance liquid chromatography method, and this workflow was adapted using instrumentation described in the previous LC-MS/MS analysis section ([Coutinho et al, 2023]). Briefly, analogs were eluted using isocratic flow with an increasing percentage of organic solvent from 55% to 90% in increments of 5%. The change in the log of the retention factor, log k, was plotted against the fraction of organic solvent. This allowed for extrapolation to the y-intercept, which is when the fraction of organic in the system is zero, or log kw. The same workflow was applied to known compounds with a published logP value to establish a relationship between logP and log kw. This ratio was used to calculate the experimental logP from the log kw of the test compounds. The in silico prediction of logP values was obtained using an online calculator by Molinspiration Cheminformatics (molinspiration.com).

[3] = Caco-2 permeability screening; format: in vitro ADME; conditions: for Papp A→B / Papp B→A / efflux ratio at 20 µM: Caco-2, 20 μM; for Papp A→B / Papp B→A: 30 and 60 min, average ± SEM; for Papp A→B: read-out: Papp apical to basolateral; for Papp B→A: read-out: Papp basolateral to apical; for Papp: Caco-2, ranked by Papp against control drugs, read-out: Permeability ranking; for efflux ratio at 20 µM: read-out: Efflux ratio B to A/A to B
Description: Caco-2 cells were received from American Type Culture Collection and certified mycoplasma free. Cells were seeded on transwell plates (CoStar, growth area 0.33 cm^2/well, polycarbonate membrane, 0.33 μm pore size) between passage 20 and 27 and then analyzed between 21 and 25 days after wells were seeded to ensure enterocyte-like differentiation. Before assessing permeability, cells were washed once with Hank’s Balanced Salt Solution buffer, pH 7.4, and then incubated at 37 °C for 30 minutes. Transepithelial electrical resistance (TEER) was measured after equilibration before the experiment using an epithelial volt-ohmmeter (EVOM, World Precision Instruments), and cells were used if TEER > 250 Ω × cm^2. Cells were dosed to measure permeability from basolateral and apical sides at a concentration of 20 μM of test compound and 50 μM of Lucifer yellow. Lucifer yellow was used as a “zero permeability” marker to monitor the integrity of cell barrier. Samples were taken at 0 and 60 minutes from the donor side, and samples were taken at 30 and 60 minutes from the receiver side; media was replenished after the 30-minute sample was taken from both chambers. A calibration curve was prepared by serial dilution using the dosing solution in a 1:5 dilution. […] Samples were prepared for LC-MS/MS analysis by taking 100 μL of sample, adding 1 μM internal standard (GaSal-4 or GaSal-5), and crashing with 400 μL of methanol. Samples were centrifuged at 3000 rpm at 4 °C for 30 minutes, 200 μL of supernatant was transferred to a new plate, and 100 μL of water was added to each sample. Samples were vortexed and analyzed by LC-MS/MS as described earlier. […] To preliminarily evaluate organic cation transporter 1 (OCT1) or P-glycoprotein (P-gp)-dependent transport, transport studies were conducted with and without a 1 μM “inhibitor cocktail” alongside GaSal. […] The Papp for basolateral to apical, Papp apical to basolateral, and efflux ratio were reported for each compound. In order to calculate Papp, the concentration in the sampled time point was determined from the calibration curve and then converted to μg based on the volume of the chamber (0.2 mL for apical, 1.0 mL for basolateral). […] The calculation of Papp was determined using eq. […] Data are presented as the average ± SEM for each compound analyzed as n = 3 on 2 different days with 2 different cell line passages, for n = 6 total. GaSal is n = 3 on 3 different cell line passages since this was used as a test compound for the inhibition cocktail experiments.

[4] = RBC/PL partitioning equilibrium in whole blood; conditions: for K2EDTA KRBC/PL: pooled K2EDTA whole blood; for K2EDTA KRBC/PL / Heparin KRBC/PL: LC-MS/MS (ICP-MS for Ga^3+); for Heparin KRBC/PL: pooled sodium heparin whole blood
Description: The mixtures were digested at 80 °C for 4 hours and further diluted to a concentration of 6% nitric acid. Gallium (Ga^71) in whole blood, PL, and RBC samples were quantified using an Agilent 7700x ICP-MS instrument (Agilent Technologies). Metal levels were detected using an Octopole Reaction System in He mode. Other ICP-MS parameters include an radio frequency power of 1500 W, on octupole radio frequency of 190 V, an octapole bias of –18 V, a helium gas flow of 4.3 mL/min, and an argon flow of 0.99 L/min. Samples were loaded through a 7700X peristaltic (with a speed of 0.1 rps) and a MicroMist nebulizer. A standard calibration curve was used to derive metal concentrations. The calibration standards from 0–250 ppb were prepared in 6% nitric acid using atomic absorption standards (Sigma). Data analysis and extraction were performed using Agilent’s MassHunter software version 5.1, specifically version D.01.01.
All LC-MS/MS grade solvents were purchased from ThermoFisher. Ammonium bicarbonate was purchased from Sigma Aldrich. Analysis was performed on a Waters I-Class ultra-performance liquid chromatography system connected with a Waters Xevo TQ-XS mass spectrometer. Ten millimolar ammonium bicarbonate, pH 9.4 was used for mobile phase A, and 100% methanol was used for mobile phase B. The column flow rate was set at 0.400 mL/min. Chromatographic separation was performed with a BEH C18 (2.1 × 50 mm, 1.7 μm) column (Waters). […] The total run time was 4 minutes. The column temperature was set to 60 °C, and the autosampler temperature was set to 15 °C. Washing parameters were 800 μL of weak needle wash (acetonitrile [ACN]:Water/50:50) and 1000 μL of strong needle wash (methanol:ACN:2-propanol:formic acid/30:30:40:0.5) after every injection. Transitions used to monitor all drugs in the study are shown in Supplemental Table 1.
Whole blood (either potassium EDTA [K2EDTA] or sodium heparin) was preincubated at 37 °C for 30 minutes before spiking with the analyte. GaSal-5 was made at a stock concentration of 100 μg/mL in water and then spiked at a high concentration (1 μg/mL) and low concentration (100 ng/mL) to determine whether equilibrium was concentration dependent. Samples were then aliquoted and stored in a water bath at 37 °C for 1, 2, 3, 4, and 8 hours or harvested immediately. PL was harvested from samples by centrifuging at 3000 rpm at 4 °C for 10 minutes. PL was transferred to a new tube and considered the PL fraction, whereas the rest of the matrix was considered the RBC fraction. Samples were then either analyzed by LC-MS/MS or ICP-MS. […] For selectivity lot analysis, whole blood from 3 male and 3 female donors were incubated for 2 hours and then analyzed with LC-MS/MS and ICP-MS at a single concentration of 1 μg/mL. Data are presented as average ± SEM, n = 3 per sample, per concentration. Significance was determined by using a paired t test for ICP-MS and LC-MS/MS data (the same sample, different method) or a 2-tailed Student’s t test for different anticoagulants.

[5] = calculated B/P, cited from earlier work

HasA, sequence (G3XD33 entry or part of it): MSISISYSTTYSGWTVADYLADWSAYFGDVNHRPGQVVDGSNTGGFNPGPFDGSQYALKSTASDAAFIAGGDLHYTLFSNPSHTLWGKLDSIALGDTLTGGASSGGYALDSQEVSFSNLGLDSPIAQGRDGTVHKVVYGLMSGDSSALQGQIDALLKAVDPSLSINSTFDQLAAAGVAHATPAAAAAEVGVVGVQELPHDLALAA

SMILES | Kd [1] | logP [2] | Papp A→B [3] | Papp B→A [3] | Papp [3] | K2EDTA KRBC/PL ([4]; 0.1 μg/mL, 2 hours) | Heparin KRBC/PL ([4]; 0.1 μg/mL, 2 hours) | K2EDTA KRBC/PL ([4]; 1 μg/mL, 2 hours) | Heparin KRBC/PL ([4]; 1 μg/mL, 2 hours) | KRBC/PL (B/P ratio) ([5]; ref (Cao et al., 2023)) | also measured
OCCCOc1ccc(/C=N/c2ccccc2/N=C/c2ccc(OCCCO)cc2O)c(O)c1.[Ga+3] [GaSal-11] | 570 ± 30 nM | 4.04 | < 0.01 ×10⁻⁶ cm/s | 0.72 ± 0.12 ×10⁻⁶ cm/s | < 1.12 ×10⁻⁶ cm/s | 0.05 ± 0.03 | 0.91 ± 0.19 | 0.05 ± 0.02 | 1.15 ± 0.19 |  | 
CC(=Nc1ccccc1/N=C/c1ccc(OCCCO)cc1O)c1ccccc1O.[Ga+3] [GaSal-12] | 520 ± 10 nM | 3.19 | 0.05 ± 0.01 ×10⁻⁶ cm/s | 0.17 ± 0.06 ×10⁻⁶ cm/s | < 1.12 ×10⁻⁶ cm/s | 0.11 ± 0.06 | 0.86 ± 0.31 | 0.13 ± 0.04 | 1.48 ± 0.10 |  | efflux ratio at 20 µM ([3]; human): 3.4
CCCCOc1ccc(/C=N/c2ccccc2/N=C/c2ccc(OCCCC)cc2O)c(O)c1.[Ga+3] [GaSal-15] | 1980 ± 170 nM | 5.99 | 0.79 ± 0.06 ×10⁻⁶ cm/s | 7.1 ± 1.13 ×10⁻⁶ cm/s | < 1.12 ×10⁻⁶ cm/s | 5.40 ± 0.13 | 0.83 ± 0.01 | 3.81 ± 0.97 | 1.24 ± 0.03 |  | efflux ratio at 20 µM ([3]; human): 9.02
O=[N+]([O-])[O-].O=[N+]([O-])[O-].O=[N+]([O-])[O-].[Ga+3] [Ga^3+, gallium nitrate, reference compound] |  |  |  |  |  |  |  |  |  |  | hemolysis [4]: > 5%; ICP-MS calculated KRBC/PL ([4]; 1 μg/mL, sodium heparin whole blood, 6 selectivity lots, 2 hours): 0.08 ± 0.01
[Pb] [Lead] |  |  |  |  |  |  |  |  |  | 1.13 | 
CN(C)C(=O)C(CCN1CCC(O)(c2ccc(Cl)cc2)CC1)(c1ccccc1)c1ccccc1 [Loperamide, reference compound] |  |  |  |  |  |  |  |  |  |  | efflux ratio at 60 min, 20 μM ([3]; human, Caco-2, pH 7.4, known drug standards, read-out: Efflux Ratio B to A/ A to B): 4.22; Papp A→B at 60 min, 20 μM ([3]; human, Caco-2, pH 7.4, known drug standards, read-out: Papp Apical to Basolateral): 3.51 ± 0.04 ×10⁻⁶ cm/s; Papp B→A at 60 min, 20 μM ([3]; human, Caco-2, pH 7.4, known drug standards, read-out: Papp Basolateral to Apical): 14.8 ± 2.12 ×10⁻⁶ cm/s; Papp at 60 min, 20 μM ([3]; human, Caco-2, pH 7.4, known drug standards, read-out: Permeability Ranking): 3.51 to 5.33 ×10⁻⁶ cm/s
[Mn+2] [Manganese] |  |  |  |  |  |  |  |  |  |  | KRBC/PL (B/P ratio) ([5]; ref (Smith et al., 2007)): 0.2
[Ni] [Nickel] |  |  |  |  |  |  |  |  |  | 0.50 | 
[Se] [Selenium] |  |  |  |  |  |  |  |  |  | 1.34 | 
[Sr+2] [Strontium] |  |  |  |  |  |  |  |  |  | 0.42 | 
